Tests used:
[1] = target: T1, kappa opioid receptors (Cavia porcellus, UniProt P41144); experiment: Guinea pig ileal longitudinal muscle (GPI), antagonism of ethylketazocine (EK); assay type: cell-based
T1 construct: a strip of longitudinal muscle with the myenteric plexus attached was prepared; from tissue; host or cells: guinea pig ileal longitudinal muscle with myenteric plexus (Dunkin-Hartley males)
Experimental: (§1) Physiological data for guinea pig ileal longitudinal muscle (GPI) was obtained by the methodology of H. P. Rang, “Stimulant Actions of Volatile Anaesthetics on Smooth Muscle,” Brit. […] In vivo assays were done s.c. on mice.
(§2) 1. Guinea Pig Ileal Longitudinal Muscle (GPI). Ilea from guinea pigs were taken approximately 10 cm from the ileocecal junction, and a strip of longitudinal muscle with the myenteric plexus attached was prepared by the method of […] et al., Brit. […] A 1 cm portion of this strip was then mounted between two platinum electrodes placed in a 10 ml organ bath and connected to an isometric transducer; contractions were recorded on a polygraph. Contractions of the ileal strip were initiated by supramaximal rectangular pulses in all preparations (80 V of 0.5 ms duration at a frequency of 0.1 Hz). […] The organ bath was maintained at 36°-37° C. The longitudinal muscle strip was allowed to equilibrate with continuous stimulation for a minimum of 90 min. Cumulative concentration-response curves were determined after drugs were added to the bath in preselected amounts and washed out with buffer after noting their maximum effects.
(§3) Concentration-response curves were obtained in the absence (control) and the presence of the antagonist are expressed as IC50 values. The IC50 ratio represents the IC50 in the presence of the antagonist divided by the control IC50 value in the same tissue. Therefore, a high IC50 ratio represents a correspondingly high degree of antagonism at a particular receptor. This IC50 ratio was employed to calculate the Ke value using the equation Ke=[antagonist]/(IC50 ratio-1). Therefore, a low Ke represents a correspondingly high degree of binding at a particular receptor.

[2] = target: mu opioid receptors; conditions: antagonist 100 nM; agonist morphine
Experimental: as §1, §2, §3

[3] = target: T2, mu opioid receptors (Mus musculus, UniProt P42866); experiment: Mouse writhing procedure, antagonism of morphine; assay type: in vivo; conditions: mice; agonist 50 nmol; antagonist 4 mg/kg sc
T2 construct: tested in vivo using the mouse writhing procedure of G. Hayashi et al; from tissue; host or cells: whole mouse in vivo (s.c. dosing)
T2 sequence (P42866 whole entry): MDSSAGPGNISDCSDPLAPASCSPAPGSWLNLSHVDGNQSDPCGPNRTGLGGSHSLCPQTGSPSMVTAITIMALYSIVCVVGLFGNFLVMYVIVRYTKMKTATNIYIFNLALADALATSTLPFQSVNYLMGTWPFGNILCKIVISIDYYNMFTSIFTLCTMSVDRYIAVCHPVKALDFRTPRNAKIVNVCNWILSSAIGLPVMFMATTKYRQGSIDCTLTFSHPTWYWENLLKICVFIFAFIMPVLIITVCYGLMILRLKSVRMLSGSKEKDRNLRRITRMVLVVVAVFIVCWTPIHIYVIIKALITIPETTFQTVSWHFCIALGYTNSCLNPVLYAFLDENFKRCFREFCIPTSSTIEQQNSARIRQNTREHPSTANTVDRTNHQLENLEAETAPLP
Source text: (§4) Physiological data for guinea pig ileal longitudinal muscle (GPI) was obtained by the methodology of H. P. Rang, “Stimulant Actions of Volatile Anaesthetics on Smooth Muscle,” Brit. J. Pharmacol., 22, 356 (1964) on Dunkin-Hartley males; mouse vas deferens (MVD) data was obtained using Henderson's method on Swiss-Webster males (G. Henderson et al., “A New Example of a Morphine-Sensitive Neuroeffector Junction: Adrenergic Transmission in the Mouse vas Deferens,” Brit. J. Pharmacol., 46, 764 (1972). Guinea pig brain membrane binding assays were done on Dunkin-Hartley males using a modification of the method of L. L. Werling et al., “Opioid Binding to Rat and Guinea Pig Neural Membranes in the Presence of Physiological Cations at 37° C.,” J. Pharmacol. Exp. Ther., 233 722 (1985). In vivo assays were done s.c. on mice.
(§5) Compound δ was tested in vivo using the mouse writhing procedure of G. Hayashi et al., Eur. J. Pharmacol., 85, 163 (1982).

[4] = target: T3, delta opioid receptors (Mus musculus, UniProt P32300); experiment: Mouse writhing procedure, antagonism of DADLE; assay type: in vivo; conditions: mice; agonist 50 nmol; antagonist 4 mg/kg sc
T3 sequence (P32300 whole entry): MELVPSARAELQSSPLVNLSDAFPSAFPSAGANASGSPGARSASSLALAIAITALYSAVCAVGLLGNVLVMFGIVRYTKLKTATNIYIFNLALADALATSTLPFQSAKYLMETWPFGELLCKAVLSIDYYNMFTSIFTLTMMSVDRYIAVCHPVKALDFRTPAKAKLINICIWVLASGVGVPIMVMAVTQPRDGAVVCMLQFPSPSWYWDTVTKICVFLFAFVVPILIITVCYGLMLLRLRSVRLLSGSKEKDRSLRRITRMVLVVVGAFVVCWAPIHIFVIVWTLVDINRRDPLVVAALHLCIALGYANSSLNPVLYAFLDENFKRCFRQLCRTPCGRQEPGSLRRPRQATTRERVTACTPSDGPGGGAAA
Source text: as §4, §5

[5] = target: T4, kappa receptors (Mus musculus, UniProt P33534); experiment: Mouse writhing procedure, antagonism of U50488H; assay type: in vivo, mice
T4 construct: tested in vivo using the mouse writhing procedure of G. Hayashi et al; from tissue; host or cells: whole mouse in vivo (s.c. dosing)
T4 sequence (P33534 whole entry): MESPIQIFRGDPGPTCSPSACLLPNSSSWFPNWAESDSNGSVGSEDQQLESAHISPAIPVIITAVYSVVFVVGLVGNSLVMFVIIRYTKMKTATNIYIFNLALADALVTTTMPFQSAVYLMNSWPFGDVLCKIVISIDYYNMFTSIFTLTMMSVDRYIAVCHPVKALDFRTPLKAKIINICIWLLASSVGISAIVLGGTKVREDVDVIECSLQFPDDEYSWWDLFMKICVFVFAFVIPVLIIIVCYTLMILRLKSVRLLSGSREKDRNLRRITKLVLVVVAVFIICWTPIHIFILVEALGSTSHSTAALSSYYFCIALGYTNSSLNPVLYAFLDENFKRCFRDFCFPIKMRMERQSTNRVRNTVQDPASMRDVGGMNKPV
Source text: as §4, §5

[6] = target: T3, delta opioid receptors; experiment: Mouse vas deferens (MVD), antagonism of DADLE (D); assay type: cell-based; set-up: Both vasa deferentia were dissected out of mice and mounted singly; from tissue; host or cells: mouse vas deferens (Swiss-Webster males) for A3; whole mouse in vivo for A7; conditions: antagonist 100 nM; agonist DADLE
Experimental: 2. Mouse Vas Deferens (MVD). This assay was performed according to the description by G. Henderson et al., Brit. […] Both vasa deferentia were dissected out of mice and mounted singly through two platinum ring electrodes in a 10 ml organ bath. The bath contained Krebs bicarbonate solution that was continuously bubbled with 95% O2 and 5% CO2. The organ bath was maintained at 37° C. The tissue was attached to an isometric transducer and stimulated transmurally with rectangular pulses ([…], 1 ms duration, supramaximal voltage). Drugs were added cumulatively to the bath in preselected amounts and washed out after noting their maximum effects.
as §3

T1 sequence (P41144 whole entry): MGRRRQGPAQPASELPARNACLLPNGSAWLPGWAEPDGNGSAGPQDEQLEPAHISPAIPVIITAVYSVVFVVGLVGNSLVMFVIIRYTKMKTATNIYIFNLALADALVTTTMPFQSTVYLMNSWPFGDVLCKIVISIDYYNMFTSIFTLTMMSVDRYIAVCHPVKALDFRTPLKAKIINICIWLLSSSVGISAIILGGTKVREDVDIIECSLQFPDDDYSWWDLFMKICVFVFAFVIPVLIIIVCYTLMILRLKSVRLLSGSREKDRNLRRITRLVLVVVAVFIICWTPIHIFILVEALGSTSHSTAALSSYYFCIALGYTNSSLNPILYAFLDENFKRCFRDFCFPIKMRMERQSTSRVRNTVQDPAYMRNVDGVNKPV

In the case of “17-(Cyclopropylmethyl)-6,7-dehydro-4,5α-epoxy-3,14-dihydroxy-5-[(N^2-pentanamidino)methyl]-6,7-2′,3′-indolomorphinan Dihydrochloride [Compound 6]”, the “Selectivity κ/μ” value ([1]; GPI EK versus GPI morphine) is reported as 28, the “Selectivity κ/δ” value ([1]; GPI EK versus MVD DADLE) is reported as 93 and the “kappa antagonist potency compared with norBNI” value ([1]; GPI, EK) is reported as “more potent”. The “kappa selectivity compared with norBNI” value ([1]; GPI/MVD) was “more selective”, the “potency and selectivity compared with norBNI” value ([1]; GPI/MVD) was “more potent and selective” and the Kb ([1]; antagonist 100 nM, 15 min incubation, agonist ethylketazocine, Ke=[antagonist]/(IC50 ratio-1)) was 0.23 nM. The “IC50 ratio, EK (GPI)” value ([1]; antagonist 100 nM, IC50 agonist + antagonist/IC50 agonist, agonist ethylketazocine) was 439 ± 100, the “IC50 ratio, M (GPI)” value [2] was 15.7 ± 4.0 and the “Ke, M (GPI)” value [2] was 6.80 nM. The “ED50 ratio [(agonist + 6)/agonist control], morphine” value [3] was 1.63, the “ED50 ratio [(agonist + 6)/agonist control], DADLE” value [4] was 0.25 and the “ED50 ratio [(agonist + 6)/agonist control], U50488H” value ([5]; mice, agonist 50 nmol, antagonist 4 mg/kg sc) was 3.77. For the same substance, the “antagonist selectivity in the whole animal model” value ([5]; mouse writhing, 4 mg/kg sc) was “selective kappa antagonist”, the “IC50 ratio, D (MVD)” value [6] was 4.71 ± 1.06 and the “Ke, D (MVD)” value [6] was 26.9 nM.
